Measurements reported in patent US11382956B2, “Amylin analogues” (Zealand Pharma A/S, priority 2016, dated 2022).
pEC50: −log10 of the molar value. Numbered stars: 1 amine (or outer) side, 2 acyl side, 3 side chain; on linkers, the order of the positions; unused ones are H or OH. Bridge positions count the residues as written; N and C are the ends. Square brackets hold non-standard residues; d marks the D form. Peptide text beside a SMILES is read from it. * marks the point of attachment. C20 diacid = O=C(O)CCCCCCCCCCCCCCCCCCC(=O)*; γGlu = O=C(O)[C@H](CCC(=O)[*:2])N[*:1]; Hyp = O=C(O)[C@@H]1C[C@@H](O)CN1; NMeI = CC[C@H](C)[C@H](NC)C(=O)O; Aad = N[C@@H](CCCC(=O)O)C(=O)O; Sar = CNCC(=O)O

How the values were obtained:
[1] = molecular target: T1, recombinant human calcitonin receptor (hCT-R) (Homo sapiens, UniProt P30988); assay: hCT-R cAMP assay (AlphaScreen) in 1321N1 cells; assay type: cell-based; settings: cAMP formation, 45 min stimulation
T1 construct: host or cells: human astrocytoma cell line 1321N1
T1 sequence (P30988 25-474): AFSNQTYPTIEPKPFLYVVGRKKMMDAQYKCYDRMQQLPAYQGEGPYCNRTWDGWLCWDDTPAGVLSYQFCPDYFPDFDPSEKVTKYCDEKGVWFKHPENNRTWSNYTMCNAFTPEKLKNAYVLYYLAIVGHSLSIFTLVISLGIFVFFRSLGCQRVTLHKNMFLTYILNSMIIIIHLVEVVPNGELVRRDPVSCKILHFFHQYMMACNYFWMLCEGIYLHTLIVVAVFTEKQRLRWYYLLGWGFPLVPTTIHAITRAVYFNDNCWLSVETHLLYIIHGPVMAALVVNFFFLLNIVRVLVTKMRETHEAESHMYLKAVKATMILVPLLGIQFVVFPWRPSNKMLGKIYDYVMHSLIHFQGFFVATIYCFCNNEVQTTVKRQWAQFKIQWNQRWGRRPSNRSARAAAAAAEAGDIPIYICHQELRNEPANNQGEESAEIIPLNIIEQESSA
Summary of the method: (§1)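 1321N1 astrocytoma cells expressing recombinant human calcitonin receptor alone or with RAMP3 (AMY3) stimulated 45 min at room temperature with peptide in IBMX-containing buffer. cAMP quantified by AlphaScreen after 1 h bead incubation; EC50 fitted from at least 7 concentrations.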

[2] = molecular target: T2, recombinant human amylin 3 receptor (hAMYR3) (Homo sapiens, UniProt O60896+P30988); assay: hAMYR3 cAMP assay (AlphaScreen) in 1321N1 cells; assay type: cell-based; settings: cAMP formation, 45 min stimulation
T2 construct: host or cells: human astrocytoma cell line 1321N1
T2 sequence (P30988 25-474): T1 sequence (P30988 25-474)
T2 sequence (O60896 24-148 partner): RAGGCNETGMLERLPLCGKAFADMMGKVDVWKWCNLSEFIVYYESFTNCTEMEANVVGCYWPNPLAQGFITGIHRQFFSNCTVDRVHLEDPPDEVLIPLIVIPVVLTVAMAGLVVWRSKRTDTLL
Summary of the method: as §1

[3] = Assessment of physical stability: fibril formation by Thioflavin T fluorescence; assay type: physicochemical; parameters: key: FND = fibrillation not detected; FD = fibrillation detected; settings: 1 mg/mL peptide; for Fibrillation (in buffer) pH4 acetate: 50 mM acetate buffer pH 4.0, 96 hours at 40° C.; for Fibrillation (in buffer) pH7 histidine: 50 mM histidine buffer pH 7.0, 96 hours at 40° C.; for Fibrillation (in buffer) pH7 phosphate: 50 mM phosphate buffer pH 7.0, 96 hours at 40° C.
Summary of the method: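 Test peptide at 1 mg/mL with 40 μM ThT in 50 mM phosphate pH 7.0, 50 mM histidine pH 7.0, or 50 mM acetate pH 4.0, in triplicate. Fluorescence read every 10 min after 300 s agitation for 96 hours at 40° C; significant intensity rise scored as fibrillation detected (FD).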

[4] = Assessment of chemical stability in 40 mM buffers at 40° C. (RP-HPLC); assay type: physicochemical; settings: 1 mg/mL; for % degradation after 72 h at 40° C. pH4 acetate: acetate buffer pH 4, 72 h; for % degradation after 72 h at 40° C. pH6 phosphate: phosphate buffer pH 6, 72 h; for % degradation after 14 days at 40° C. pH6 phosphate: phosphate buffer pH 6, 14 days; for % degradation after 72 h at 40° C. pH7 phosphate: phosphate buffer pH 7, 72 h; for % degradation after 14 days at 40° C. pH7 phosphate: phosphate buffer pH 7, 14 days
Summary of the method: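 Peptides at 1 mg/mL in 40 mM acetate pH 4 or phosphate pH 6 and 7 were held at 40° C for 3 and 14 days. Main-peak area-% by C8 RP-HPLC, UV 220 nm; % degradation = change in main-peak area-% versus t=0.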

[5] = Effect on acute food intake and body weight in normal Sprague Dawley rats; assay type: in vivo, Sprague Dawley (SD) rats; settings: vehicle-corrected
Description: Sprague Dawley (SD) rats were obtained from Janvier Labs, France. The animals arrived at least 14 days before the study start to allow acclimatization to experimental conditions. From arrival and throughout the study, the rats were housed in groups of 2 to 4 (n=2-4) in a light-, temperature- and humidity-controlled room. Animals had access ad libitum to food (KLIBA 3430, Provimi Kliba AG, Switzerland) and water (domestic quality tap water) during the entire study. Per group 6-8 rats were included. A vehicle group and positive control group were included in each set of tests. […] Dosing volume was 2 ml/kg. Food intake was recorded online using an automated food intake system (HM02, MBRose, Denmark) for 4 days or manually at 0 h for a predose and then 24, 48, 72 and 96 h post dosing. Body weight was measured daily.
Statistical analyses were performed using GraphPad™ Prism version 7. The measured parameters were compared using two-way ANOVA followed by Dunnett's multiple comparison tests. Differences were considered statistically significant at p<0.05.

| SMILES | pEC50 [1] | pEC50 [2] | Fibrillation (in buffer) pH4 acetate [3] | Fibrillation (in buffer) pH7 histidine [3] | Fibrillation (in buffer) pH7 phosphate [3] | % degradation after 72 h at 40° C. pH4 acetate [4] [%] | % degradation after 72 h at 40° C. pH6 phosphate [4] [%] | % degradation after 14 days at 40° C. pH6 phosphate [4] [%] | % degradation after 72 h at 40° C. pH7 phosphate [4] [%] | % degradation after 14 days at 40° C. pH7 phosphate [4] [%] | Body weight reduction in % at 48 h ([5]; at dose of 10 nmol/kg sc) [%] | Food intake reduction in % at 48 h ([5]; at dose of 10 nmol/kg sc) [%] | Body weight reduction in % at 48 h ([5]; Dose: 30 nmol/kg sc) [%] | Food intake reduction in % at 48 h ([5]; Dose: 30 nmol/kg sc) [%] | % degradation after 14 days at 40° C. pH4 acetate ([4]; acetate buffer pH 4, 14 days) [%] |
| --- | --- | --- | --- | --- | --- | --- | --- | --- | --- | --- | --- | --- | --- | --- | --- |
| CC[C@H](C)[C@@H](C(=O)N[C@@H](CC(C)C)C(=O)N[C@@H](CO)C(=O)N[C@@H](CO)C(=O)N[C@H](C(=O)N[C@@H](CCC(=O)O)C(=O)N[C@H](C(=O)NCC(=O)N[C@@H](CO)C(=O)N[C@@H](CC(N)=O)C(=O)N[C@H](C(=O)N1C[C@H](O)C[C@H]1C(N)=O)[C@@H](C)O)[C@@H](C)O)[C@@H](C)O)N(C)C(=O)[C@H](C)NC(=O)CN(C)C(=O)[C@H](Cc1ccccc1)NC(=O)[C@H](CO)NC(=O)[C@H](CO)NC(=O)[C@H](CCCNC(=N)N)NC(=O)[C@H](CCC(N)=O)NC(=O)[C@H](CC(C)C)NC(=O)[C@H](Cc1ccccc1)NC(=O)[C@H](CCCC(=O)O)NC(=O)[C@H](C)NC(=O)[C@H](CC(C)C)NC(=O)[C@H](CCCNC(=N)N)NC(=O)[C@H](CCC(=O)O)NC(=O)[C@@H](NC(=O)[C@H](C)NC(=O)[C@@H]1CCCCNC(=O)C[C@H](NC(=O)[C@H](CCCNC(=N)N)NC(=O)CC[C@H](NC(=O)CCCCCCCCCCCCCCCCCCC(=O)O)C(=O)O)C(=O)NCC(=O)N[C@@H]([C@@H](C)O)C(=O)N[C@@H](C)C(=O)N[C@@H]([C@@H](C)O)C(=O)N1)[C@@H](C)O [Compound 36, [19CD]-isoGlu-RD()GTATK()ATERLA-Aad-FLQRSSF-Gly(Me)-A-Ile(Me)-LSSTETGSNT-Hyp-NH2] ({C20 diacid-γGlu}-RDGTATKATERLA[Aad]FLQRSSF[Sar]A[NMeI]LSSTETGSNT[Hyp]-NH2; lactam 2-7) | 10.59 | 11.15 | FD | FND | FND | 2.5 | 2.1 | 1.6 | 1.0 | <1 | 5.2 | 44 |  |  |  |
| CC[C@H](C)[C@@H](C(=O)N1CCC[C@H]1C(=O)N[C@@H](CO)C(=O)N[C@@H](CO)C(=O)N[C@H](C(=O)N[C@@H](CCC(=O)O)C(=O)N[C@H](C(=O)NCC(=O)N[C@@H](CO)C(=O)N[C@@H](CC(N)=O)C(=O)N[C@H](C(=O)N1C[C@H](O)C[C@H]1C(N)=O)[C@@H](C)O)C(C)C)[C@@H](C)O)N(C)C(=O)[C@H](C)NC(=O)CN(C)C(=O)[C@H](Cc1ccccc1)NC(=O)[C@H](CO)NC(=O)[C@H](CO)NC(=O)[C@H](CCCNC(=N)N)NC(=O)[C@H](CCC(N)=O)NC(=O)[C@H](CC(C)C)NC(=O)[C@H](Cc1ccccc1)NC(=O)[C@H](Cc1c[nH]cn1)NC(=O)[C@H](C)NC(=O)[C@H](CC(C)C)NC(=O)[C@H](CCCNC(=N)N)NC(=O)[C@H](CCC(N)=O)NC(=O)[C@@H](NC(=O)[C@H](C)NC(=O)[C@@H]1CCCCNC(=O)C[C@H](NC(=O)[C@H](CCCNC(=N)N)NC(=O)CC[C@H](NC(=O)CCCCCCCCCCCCCCCCCCC(=O)O)C(=O)O)C(=O)NCC(=O)N[C@@H]([C@@H](C)O)C(=O)N[C@@H](C)C(=O)N[C@@H]([C@@H](C)O)C(=O)N1)[C@@H](C)O [Compound 15, [19CD]-isoGlu-RD()GTATK()ATQRLAHFLQRSSF-Gly(Me)-A-Ile(Me)-PSSTEVGSNT-Hyp-NH2] ({C20 diacid-γGlu}-RDGTATKATQRLAHFLQRSSF[Sar]A[NMeI]PSSTEVGSNT[Hyp]-NH2; lactam 2-7) | 10.25 | 10.77 | FND | FD | FD | <1 | <1 |  | <1 |  |  |  | 7.7 | 71 |  |
| CC[C@H](C)[C@@H](C(=O)N[C@@H](CC(C)C)C(=O)N[C@@H](CO)C(=O)N[C@@H](CO)C(=O)N[C@H](C(=O)N[C@@H](CCC(=O)O)C(=O)N[C@H](C(=O)NCC(=O)N[C@@H](CO)C(=O)N[C@@H](CC(N)=O)C(=O)N[C@H](C(=O)N1C[C@H](O)C[C@H]1C(N)=O)[C@@H](C)O)C(C)C)[C@@H](C)O)N(C)C(=O)[C@H](C)NC(=O)CN(C)C(=O)[C@H](Cc1ccccc1)NC(=O)[C@H](CO)NC(=O)[C@H](CO)NC(=O)[C@H](CCCNC(=N)N)NC(=O)[C@H](CCC(N)=O)NC(=O)[C@H](CC(C)C)NC(=O)[C@H](Cc1ccccc1)NC(=O)[C@H](CC(=O)O)NC(=O)[C@H](C)NC(=O)[C@H](CC(C)C)NC(=O)[C@H](CCCNC(=N)N)NC(=O)[C@H](CCC(N)=O)NC(=O)[C@@H](NC(=O)[C@H](C)NC(=O)[C@@H]1CCCCNC(=O)C[C@H](NC(=O)[C@H](CCCNC(=N)N)NC(=O)CC[C@H](NC(=O)CCCCCCCCCCCCCCCCCCC(=O)O)C(=O)O)C(=O)NCC(=O)N[C@@H]([C@@H](C)O)C(=O)N[C@@H](C)C(=O)N[C@@H]([C@@H](C)O)C(=O)N1)[C@@H](C)O [Compound 41, [19CD]-isoGlu-RD()GTATK()ATQRLADFLQRSSF-Gly(Me)-A-Ile(Me)-LSSTEVGSNT-Hyp-NH2] ({C20 diacid-γGlu}-RDGTATKATQRLADFLQRSSF[Sar]A[NMeI]LSSTEVGSNT[Hyp]-NH2; lactam 2-7) | 10.02 | 10.62 | FND | FND | FND | <1 | <1 | <1 | <1 | <1 |  |  | 11 | 75 | 1.1 |
| CC[C@H](C)[C@@H](C(=O)N1CCC[C@H]1C(=O)N[C@@H](CO)C(=O)N[C@@H](CO)C(=O)N[C@H](C(=O)N[C@@H](CCC(=O)O)C(=O)N[C@H](C(=O)NCC(=O)N[C@@H](CO)C(=O)N[C@@H](CC(N)=O)C(=O)N[C@H](C(=O)N1C[C@H](O)C[C@H]1C(N)=O)[C@@H](C)O)C(C)C)[C@@H](C)O)N(C)C(=O)[C@H](C)NC(=O)CN(C)C(=O)[C@H](Cc1ccccc1)NC(=O)[C@H](CO)NC(=O)[C@H](CO)NC(=O)[C@H](CCCNC(=N)N)NC(=O)[C@H](CCC(N)=O)NC(=O)[C@H](CC(C)C)NC(=O)[C@H](Cc1ccccc1)NC(=O)[C@H](CCCC(=O)O)NC(=O)[C@H](C)NC(=O)[C@H](CC(C)C)NC(=O)[C@H](CCCNC(=N)N)NC(=O)[C@H](CCC(=O)O)NC(=O)[C@@H](NC(=O)[C@H](C)NC(=O)[C@@H]1CCCCNC(=O)C[C@H](NC(=O)[C@H](CCC(=O)O)NC(=O)CC[C@H](NC(=O)CCCCCCCCCCCCCCCCCCC(=O)O)C(=O)O)C(=O)NCC(=O)N[C@@H]([C@@H](C)O)C(=O)N[C@@H](C)C(=O)N[C@@H]([C@@H](C)O)C(=O)N1)[C@@H](C)O [Compound 30, [19CD]-isoGlu-ED()GTATK()ATERLA-Aad-FLQRSSF-Gly(Me)-A-Ile(Me)-PSSTEVGSNT-Hyp-NH2] ({C20 diacid-γGlu}-EDGTATKATERLA[Aad]FLQRSSF[Sar]A[NMeI]PSSTEVGSNT[Hyp]-NH2; lactam 2-7) | 9.63 | 9.91 | FD | FND | FND |  |  |  |  |  |  |  | 0 | <20 |  |
